Results from EPA's ToxRefDB 2.

Columns and labels:
[1] = tested on: rat; conditions: Prenatal developmental toxicity study, sprague dawley, Oral, Gavage/Intubation, dose end: 19 GD
[2] = tested on: rat; conditions: Multigenerational reproductive toxicity study, sprague dawley, Oral, Feed, dose end: 2 generation
[3] = tested on: mouse; conditions: Carcinogenicity, b6c3f1, Oral, Feed, dose end: 18 month, group: systemic
[4] = tested on: rat; conditions: Combined chronic toxicity/carcinogenicity; fischer; Oral; Feed; dose end: 2 year; group: systemic; systemic / clinical chemistry / alkaline phosphatase (alp/alk) / alkaline phosphatase (alp/alk) + systemic / clinical chemistry / globulins…
[5] = tested on: dog; conditions: Chronic toxicity, beagle, Oral, Feed, dose end: 104 week, group: systemic
[6] = tested on: rat; conditions: Multigenerational reproductive toxicity study, sprague dawley, Oral, Feed, dose end: 2 generation; remark: listed apart in the source
[7] = tested on: rat; conditions: Prenatal developmental toxicity study, other, Oral, Gavage/Intubation, dose end: 15 GD
[8] = tested on: rabbit; conditions: Prenatal developmental toxicity study; new zealand white; Oral; Gavage/Intubation; dose end: 18 GD; group: maternal; systemic / in life observation / body weight / body weight gain + systemic / in life observation / clinical signs / anorexia + systemic / in…
[9] = tested on: rat; conditions: Subchronic oral toxicity in rodents, other, Feed, dose end: 13 week, group: systemic, systemic / organ weight / liver / relative to body weight + systemic / organ weight / thymus / absolute + systemic / organ weight / thymus…
[10] = tested on: rat; conditions: Subchronic oral toxicity in rodents, sprague dawley, Diet, dose end: 13 week, group: systemic
[11] = tested on: rabbit; conditions: Prenatal developmental toxicity study; new zealand white; Oral; Gavage/Intubation; dose end: 19 GD; group: maternal; reproductive / reproductive performance / aborted / aborted + reproductive / reproductive performance / resorptions / resorptions + systemic…
[12] = tested on: rat; conditions: Subchronic oral toxicity in rodents, long evans, Feed, dose end: 13 week, group: systemic, systemic / organ weight / liver / absolute + systemic / organ weight / liver / relative to body weight + systemic / pathology microscopic / …
[13] = tested on: mouse; conditions: Carcinogenicity; cd1; Oral; Feed; dose end: 87 week; group: systemic; systemic / clinical chemistry / alanine aminotransferase (alt/sgpt) / alanine aminotransferase (alt/sgpt) + systemic / clinical chemistry / …
[14] = tested on: rat; conditions: Multigenerational reproductive toxicity study, sprague dawley, Oral, Feed, dose end: 2 generation; remark: listed apart in the source
[15] = tested on: rat; conditions: Combined chronic toxicity/carcinogenicity, other, Oral, Feed, dose end: 100 week, group: systemic
[16] = tested on: rat; conditions: Subchronic oral toxicity in rodents, other, [Not Specified], dose end: 13 week, group: systemic
[17] = tested on: mouse; conditions: Carcinogenicity, cd1, Oral, Feed, dose end: 78 week, group: systemic
[18] = tested on: dog; conditions: Chronic toxicity, beagle, Oral, Capsule, dose end: 52 week, group: systemic
[19] = tested on: rabbit; conditions: Prenatal developmental toxicity study, new zealand white, Oral, Gavage/Intubation, dose end: 19 GD
[20] = tested on: rat; conditions: Prenatal developmental toxicity study, sprague dawley, Oral, Gavage/Intubation, dose end: 15 GD
[21] = group: developmental, developmental / developmental malformation / bone / incomplete ossification + developmental / developmental malformation / brain / dilated …
[22] = group: maternal, systemic / in life observation / clinical signs / piloerection + systemic / in life observation / clinical signs / salivation
[23] = group: maternal, systemic / in life observation / clinical signs / piloerection + systemic / in life observation / clinical signs / salivation + reproductive…
[24] = group: offspring, developmental / offspring survival late / viability index / viability index + systemic / pathology microscopic / kidney / dilatation
[25] = group: offspring, developmental / offspring survival late / viability index / viability index + systemic / pathology microscopic / kidney / dilatation + …
[26] = group: parental, systemic / pathology microscopic / kidney / dilatation + systemic / in life observation / body weight / body weight + systemic / in life …
[27] = systemic / organ weight / liver / absolute + systemic / in life observation / body weight / body weight
[28] = systemic / organ weight / liver / absolute + systemic / in life observation / body weight / body weight + systemic / organ weight / liver / …
[29] = systemic / clinical chemistry / alkaline phosphatase (alp/alk) / alkaline phosphatase (alp/alk) + systemic / in life observation / body …
[30] = systemic / in life observation / body weight / body weight gain + systemic / organ weight / liver / absolute + systemic / organ weight / …
[31] = group: offspring, systemic / in life observation / body weight / offspring (pup) weight + systemic / in life observation / body weight / offspring (pup) …
[32] = group: parental, systemic / pathology microscopic / kidney / hyperplasia + systemic / pathology microscopic / kidney / mineralization + systemic / pathology …
[33] = group: reproductive, reproductive / offspring survival early / birth index / live birth index
[34] = group: developmental, developmental / developmental malformation / bone / bent + developmental / developmental malformation / bone / fused + developmental / …
[35] = group: maternal, systemic / in life observation / clinical signs / defecation + systemic / in life observation / clinical signs / defecation (diarrhea) + …
[36] = systemic / in life observation / clinical signs / anemia - microcytic + systemic / urinalysis / volume / volume + systemic / clinical …
[37] = group: offspring, developmental / offspring survival late / viability index / viability index
[38] = group: offspring, developmental / offspring survival late / viability index / viability index + systemic / in life observation / body weight / offspring (pup…
[39] = group: parental, systemic / in life observation / body weight / body weight + systemic / in life observation / mortality / mortality + systemic / pathology …
[40] = systemic / pathology gross / adrenal gland / enlarged
[41] = systemic / urinalysis / ph / ph
[42] = systemic / pathology microscopic / liver / vacuolization
[43] = systemic / pathology microscopic / liver / vacuolization + systemic / in life observation / body weight / body weight gain + systemic / …
[44] = systemic / clinical chemistry / alanine aminotransferase (alt/sgpt) / alanine aminotransferase (alt/sgpt) + systemic / clinical chemistry / …
[45] = systemic / in life observation / body weight / body weight gain
[46] = group: developmental, developmental / developmental malformation / bone / irregular ossification + developmental / developmental malformation / bone / misshapen …
[47] = group: maternal, systemic / in life observation / body weight / body weight gain + systemic / in life observation / food consumption / food consumption + …
[48] = group: developmental, developmental / developmental malformation / bone / full supernumerary
[49] = group: maternal, systemic / in life observation / body weight / body weight gain

Compound: O=C([O-])c1cc(Oc2ccc(C(F)(F)F)cc2Cl)ccc1[N+](=O)[O-].[Na+] [Acifluorfen-sodium]
- LEL [1, 21]: 90 mg/kg/day
- LOAEL [1, 21]: 90 mg/kg/day
- NEL [1, 21]: 20 mg/kg/day
- NOAEL [1, 21]: 20 mg/kg/day
- LEL [1, 22]: 90 mg/kg/day
- LOAEL [1, 22]: 90 mg/kg/day
- NEL [1, 23]: 20 mg/kg/day
- NOAEL [1, 23]: 20 mg/kg/day
- LEL [2, 24]: 50 mg/kg/day
- LOAEL [2, 24]: 50 mg/kg/day
- NEL [2, 25]: 2.5 mg/kg/day
- NOAEL [2, 25]: 2.5 mg/kg/day
- LOAEL ([2]; group: parental, systemic / pathology microscopic / kidney / dilatation): 50 mg/kg/day
- NEL [2, 26]: 2.5 mg/kg/day
- NOAEL [2, 26]: 2.5 mg/kg/day
- LEL ([2]; group: parental, systemic / pathology microscopic / kidney / dilatation + systemic / in life observation / body weight / body weight gain): 50 mg/kg/day
- LOAEL [3, 27]: 119 mg/kg/day
- NOAEL [3, 27]: < 119 mg/kg/day
- LEL [3, 28]: 119 mg/kg/day
- NEL [3, 28]: < 119 mg/kg/day
- LEL [4]: 125 mg/kg/day
- LOAEL [4]: 125 mg/kg/day
- NEL [4]: 25 mg/kg/day
- NOAEL [4]: 25 mg/kg/day

Compound: CCOc1cc(Oc2ccc(C(F)(F)F)cc2Cl)ccc1[N+](=O)[O-] [Oxyfluorfen]
- LOAEL [5, 29]: 18.5 mg/kg/day
- NOAEL [5, 29]: 3.1 mg/kg/day
- LEL [5, 30]: 3 mg/kg/day
- NEL [5, 30]: < 3 mg/kg/day
- LEL [6, 31]: 146 mg/kg/day
- LOAEL [6, 31]: 146 mg/kg/day
- NEL [6, 31]: 36.4 mg/kg/day
- NOAEL [6, 31]: 36.4 mg/kg/day
- LEL [6, 32]: 120 mg/kg/day
- LOAEL [6, 32]: 120 mg/kg/day
- NEL [6, 32]: 30.9 mg/kg/day
- NOAEL [6, 32]: 30.9 mg/kg/day
- LEL [6, 33]: 146 mg/kg/day
- LOAEL [6, 33]: 146 mg/kg/day
- NEL [6, 33]: 36.4 mg/kg/day
- NOAEL [6, 33]: 36.4 mg/kg/day
- LEL [7, 34]: 183 mg/kg/day
- LOAEL [7, 34]: 183 mg/kg/day
- NEL [7, 34]: 18 mg/kg/day
- NOAEL [7, 34]: 18 mg/kg/day
- LEL [7, 35]: 183 mg/kg/day
- LOAEL [7, 35]: 183 mg/kg/day
- NEL [7, 35]: 18 mg/kg/day
- NOAEL [7, 35]: 18 mg/kg/day
- LEL [8]: 30 mg/kg/day
- LOAEL [8]: 30 mg/kg/day
- NEL [8]: 10 mg/kg/day
- NOAEL [8]: 10 mg/kg/day
- LEL [9]: 71 mg/kg/day
- LOAEL [9]: 71 mg/kg/day
- NEL [9]: 14 mg/kg/day
- NOAEL [9]: 14 mg/kg/day
- LEL ([10]; systemic / hematology / mean corpuscular (cell) volume (mcv) / mean corpuscular (cell) volume (mcv) + systemic / hematology / mean …): 144 mg/kg/day
- LOAEL ([10]; systemic / in life observation / clinical signs / anemia - microcytic + systemic / urinalysis / volume / volume): 585 mg/kg/day
- NEL [10, 36]: 46.7 mg/kg/day
- NOAEL [10, 36]: 144 mg/kg/day
- LEL [11]: 90 mg/kg/day
- LOAEL [11]: 90 mg/kg/day
- NEL [11]: 30 mg/kg/day
- NOAEL [11]: 30 mg/kg/day
- LEL [12]: 51.4 mg/kg/day
- LOAEL [12]: 51.4 mg/kg/day
- NEL [12]: < 51.4 mg/kg/day
- NOAEL [12]: < 51.4 mg/kg/day
- LEL [13]: 33 mg/kg/day
- LOAEL [13]: 33 mg/kg/day
- NEL [13]: 3 mg/kg/day
- NOAEL [13]: 3 mg/kg/day

Compound: CC1(C)CC/C(=C\c2ccc(Cl)cc2)C1(O)Cn1cncn1 (stereo unspecified) [Triticonazole]
- LEL [14, 37]: 0.25 mg/kg/day
- NEL [14, 37]: < 0.25 mg/kg/day
- LOAEL [14, 38]: 250 mg/kg/day
- NOAEL [14, 38]: 37.5 mg/kg/day
- LOAEL [14, 39]: 250 mg/kg/day
- NOAEL [14, 39]: 37.5 mg/kg/day
- NEL ([14]; group: parental, systemic / in life observation / body weight / body weight + systemic / pathology microscopic / adrenal gland / vacuolization + systemic / …): 1.25 mg/kg/day
- LEL ([14]; group: parental, systemic / organ weight / adrenal gland / absolute): 37.5 mg/kg/day
- LEL [14, 33]: 0.25 mg/kg/day
- NEL [14, 33]: < 0.25 mg/kg/day
- LOAEL ([14]; group: reproductive, reproductive / reproductive performance / fertility / fertility): 250 mg/kg/day
- NOAEL ([14]; group: reproductive, reproductive / reproductive performance / fertility / fertility + reproductive / offspring survival early / birth index / live birth index…): 37.5 mg/kg/day
- LEL [15, 40]: 0.2 mg/kg/day
- NEL [15, 40]: < 0.2 mg/kg/day
- LOAEL ([15]; systemic / pathology microscopic / adrenal gland / inflammation + systemic / in life observation / body weight / body weight + systemic / in…): 287 mg/kg/day
- NOAEL ([15]; systemic / pathology microscopic / adrenal gland / inflammation + systemic / pathology microscopic / adrenal gland / atypia nuclear): 38.3 mg/kg/day
- LOAEL ([16]; systemic / pathology microscopic / adrenal gland / vacuolization): 19.8 mg/kg/day
- NOAEL ([16]; systemic / pathology microscopic / adrenal gland / vacuolization + systemic / clinical chemistry / alkaline phosphatase (alp/alk) / alkaline…): 2 mg/kg/day
- LEL [16, 41]: 2.2 mg/kg/day
- NEL [16, 41]: < 2.2 mg/kg/day
- NEL [17, 42]: 17.4 mg/kg/day
- NOAEL [17, 42]: 17.4 mg/kg/day
- LEL [17, 43]: 202 mg/kg/day
- LOAEL [17, 43]: 202 mg/kg/day
- LOAEL [18, 44]: 150 mg/kg/day
- NOAEL [18, 44]: 25 mg/kg/day
- LEL [18, 45]: 2.5 mg/kg/day
- NEL [18, 45]: < 2.5 mg/kg/day
- LEL [19, 46]: 75 mg/kg/day
- LOAEL [19, 46]: 75 mg/kg/day
- NEL [19, 46]: 50 mg/kg/day
- NOAEL [19, 46]: 50 mg/kg/day
- LEL [19, 47]: 50 mg/kg/day
- LOAEL [19, 47]: 50 mg/kg/day
- NEL [19, 47]: 25 mg/kg/day
- NOAEL [19, 47]: 25 mg/kg/day
- LEL [20, 48]: 1000 mg/kg/day
- LOAEL [20, 48]: 1000 mg/kg/day
- NEL [20, 48]: 200 mg/kg/day
- NOAEL [20, 48]: 200 mg/kg/day
- LEL [20, 49]: 1000 mg/kg/day
- LOAEL [20, 49]: 1000 mg/kg/day
- NEL [20, 49]: 200 mg/kg/day
- NOAEL [20, 49]: 200 mg/kg/day
